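Values below derive from 48-hour exposures of cells grown in 96-well plates, with endpoints linearly interpolated between the two concentrations bracketing the appropriate inhibition level. At the TGI there is no net growth.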
Assays:
Assay in all cases: NCI-60 cell line screen, 48 h
[1] = test system: SF-295 CNS
[2] = test system: CCRF-CEM leukemia
[3] = test system: SR leukemia
[4] = test system: SNB-75 CNS
[5] = test system: HCT-116 colon
[6] = test system: UACC-62 melanoma
[7] = test system: M14 melanoma
[8] = test system: RXF-631 renal
[9] = test system: ACHN renal
[10] = test system: HL-60(TB) leukemia
[11] = test system: DMS 114 small cell lung
[12] = test system: COLO 205 colon
[13] = test system: HOP-18 NSCLC
[14] = test system: DLD-1 colon
[15] = test system: UO-31 renal
[16] = test system: MALME-3M melanoma
[17] = test system: UACC-257 melanoma
[18] = test system: A549 NSCLC
[19] = test system: OVCAR-5 ovarian
[20] = test system: SK-MEL-2 melanoma
[21] = test system: LOX IMVI melanoma
[22] = test system: SF-268 CNS
[23] = test system: KM20L2 colon
[24] = test system: NCI-H460 lung
[25] = test system: M19-MEL melanoma
[26] = test system: OVCAR-8 ovarian
[27] = test system: SNB-19 CNS
[28] = test system: U251 CNS
[29] = test system: SN12C renal
[30] = test system: RXF 393 renal
[31] = test system: MOLT-4 leukemia
[32] = test system: SNB-78 CNS
[33] = test system: NCI-H226 lung
[34] = test system: HCT-15 colon
[35] = test system: SK-MEL-5 melanoma
[36] = test system: CAKI-1 renal
[37] = test system: EKVX NSCLC
[38] = test system: HOP-92 NSCLC
[39] = test system: SW-620 colon
[40] = test system: OVCAR-3 ovarian
[41] = test system: 786-0 renal
[42] = test system: A498 renal
[43] = test system: HT29 colon
[44] = test system: RPMI-8226 leukemia
[45] = test system: DMS 273 small cell lung
[46] = test system: XF 498 CNS
[47] = test system: K-562 leukemia
[48] = test system: TK-10 renal
[49] = test system: NCI-H522 lung
[50] = test system: LXFL 529 NSCLC
[51] = test system: SK-OV-3 ovarian
[52] = test system: SK-MEL-28 melanoma
[53] = test system: HOP-62 NSCLC
[54] = test system: KM12 colon
[55] = test system: OVCAR-4 ovarian

NC(CNc1ccc(O)cc1)C(=O)O (stereo not given)
TGI [1]: > 100 µM
TGI [2]: > 100 µM
TGI [3]: > 100 µM
TGI [4]: > 100 µM
TGI [5]: > 100 µM
TGI [6]: 49.4 µM
TGI [7]: > 100 µM
TGI [8]: > 100 µM
TGI [9]: > 100 µM
TGI [10]: 95.7 µM
TGI [11]: > 100 µM
TGI [12]: > 100 µM
TGI [13]: > 100 µM
TGI [14]: > 100 µM
TGI [15]: > 100 µM
TGI [16]: > 100 µM
TGI [17]: > 100 µM
TGI [18]: > 100 µM
TGI [19]: > 100 µM
TGI [20]: > 100 µM
TGI [21]: > 100 µM
TGI [22]: > 100 µM
TGI [23]: > 100 µM
TGI [24]: > 100 µM
TGI [25]: 86.3 µM
TGI [26]: > 100 µM
TGI [27]: > 100 µM
TGI [28]: > 100 µM
TGI [29]: > 100 µM
TGI [30]: > 100 µM
TGI [31]: > 100 µM
TGI [32]: > 100 µM
TGI [33]: > 100 µM
TGI [34]: > 100 µM
TGI [35]: > 100 µM
TGI [36]: > 100 µM
TGI [37]: > 100 µM
TGI [38]: > 100 µM
TGI [39]: > 100 µM
TGI [40]: > 100 µM
TGI [41]: 30.2 µM
TGI [42]: > 100 µM
TGI [43]: > 100 µM
TGI [44]: > 100 µM
TGI [45]: > 100 µM
TGI [46]: 29.1 µM
TGI [47]: > 100 µM
TGI [48]: > 100 µM
TGI [49]: > 100 µM
TGI [50]: > 100 µM
TGI [51]: > 100 µM
TGI [52]: > 100 µM
TGI [53]: > 100 µM
TGI [54]: > 100 µM
TGI [55]: 31.7 µM
